Values joined by “and” are separate entries in the source; they are usually repeats but may differ in a detail not shown here. Equal values may be shown once.
How the values were obtained:
Type in all cases: physicochemical
[1] = Absorbance and fluorescence emission spectra, unbound probe; conditions: unbound dye
Method: (§1) The lifetimes (τ), steady state anisotropies (rss), time-resolved anisotropies (rt) and quantum yields (QY) of the complexes (at 20 ± 0.1°C and pH 8) were collected with a dye-labeled B7 probe concentration of 20–40 nM and 1040–2080 nM of either protein (AV or SAV) to ensure that only one binding site in the tetramer was filled with a ligand (AB1 filling model).
(§2) The QY values were obtained by using a reference fluorophore of known quantum yield and were calculated according to Parker and Rees, where the reference dye was fluorescein in 0.1N sodium hydroxide solution [46]. The emission fluorescence scans were collected from 480 nm to 700 nm with the excitation light set at 460 nm provided by the xenon arc lamp described above. These measurements were made on the AB1 complexes at high protein concentration.
(§3) Supplementary file pone.0204194.s001.docx: S1 Fig Absorbance spectra of dye-labeled B7 probes and respective complexes with AV and SAV. […] The spectra are normalized to the calculated molar absorptivies. […] The labeled probes and protein concentrations were 1 μM and 10 μM, respectively. (DOCX) Click here for additional data file.
(§4) Supplementary file pone.0204194.s002.docx: S2 Fig Fluorescence emission spectra of dye-labeled B7 and respective complexes with AV and SAV. […] The probe and protein concentrations were 20 nM and 1040 nM (AB1 filling model), respectively. (DOCX) Click here for additional data file.

avidin (AV) [2] = target: T1, avidin (AV) (Gallus gallus, UniProt P02701); assay: Fluorescence lifetimes, AV complex; conditions: for Lifetime τ: AV complex (AB1), 20°C, pH 8; for t (1), fluorescence lifetime: complex with AV, t for BFl and BcO, average lifetime for B-DNAds*Fl, in ns
T1 construct: purchased Calbiochem (La Jolla, CA)
Method: as §1
The lifetimes were collected in a FluoTime100 fluorescence spectrometer (PicoQuant, GmbH, Berlin, Germany) with the excitation light source provided by a picosecond pulsed diode laser (PicoQuant, GmbH, Berlin, Germany) at 470 nm and 20 MHz. The emission was collected at 520 nm through a non-fluorescing 520 nm interference filter (Oriel Corp., Stratford, CT) followed by a liquid filter of 1cm path length containing 24 mM acetate buffered dichromate at pH 4, between the sample and detector to eliminate traces of excitation light. The fluorescence decays were fit by a nonlinear least-squares minimization based on the Marquardt algorithm embedded in the Fluofit software (PicoQuant GmbH). Twenty-eight decays were collected per sample, the decays were grouped in four sets, consisting of seven sample decays and one Instrument Response Function, IRF, for deconvolution proposes. The decay sets were globally fitted to mono- or bi-exponential decay models that were discriminated using the statistical parameter χ^2. The rt data were acquired with the fluorimeter described above equipped with a polarizer and an analyzer to acquire the parallel VV(t) and perpendicular VH(t) decays. The PicoQuant G factor was calculated according to: G = ∫HV(t)dt/∫HH(t)dt, where HV(t) and HH(t) were the decays collected with the emission polarizer selecting vertical and horizontal E-vector passing orientations, respectively, and the excitation polarizer set at horizontally position.

streptavidin (SAV) [3] = target: T2, streptavidin (SAV) (Streptomyces avidinii, UniProt P22629); assay: Steady-state anisotropy (rss), SAV complex; conditions: for Steady State Anisotropy rss: SAV complex (AB1), 20°C; for SAV-increment (%): increase of rss against unbound; for rss, + SAV: steady-state anisotropy
T2 construct: purchased Sigma Aldrich (St. Louis, MO)
Method: as §1
The rss measurements were collected using the Giblin-Parkhurst modification of the Wampler-Desa method as described previously. The fluorescence signal was detected in a model A-1010 Alphascan fluorimeter (Photon Technologies, Inc., Birmingham, NJ) equipped with an R928 PMT (Hamamatsu, Bridgewater, NJ). The excitation was provided by an Ar^+ ion laser (Coherent Innova 70–4 Argon, Santa Clara, CA) at 488 nm and 5–10 mW of power incident on the sample. A photoelastic modulator (PEM-80; HINDS International, Inc., Portland, OR) was placed between the laser source and the sample compartment with a retardation level of 1.22π, and the PEM stress axis orientated 45° with respect to the E vector of the laser beam. Two signals were acquired with the PEM alternating between “on” and “off” positions for 10 seconds and the data fitted to a least squared straight line to minimize noise. A minimum of six of these independent measurements were averaged to acquire the rss values. The fluorimeter G factor was determined using a film polarizer and analyzer with an excitation at 488 nm provided by a xenon arc lamp (model A1010, Photon Technologies Inc, Princeton, NJ). The dissociation reactions of dye-labeled B7 and protein complexes were monitored by fluorescence changes and were also collected in the fluorimeter described above.

[4] = Quantum yields (QY), unbound probe; conditions: unbound dye
Method: as §1, §2

streptavidin (SAV) [5] = target: T2, streptavidin (SAV); assay: Time-resolved anisotropy, cone angle, SAV complex; conditions: complex with SAV
Method: as §1
The lifetimes were collected in a FluoTime100 fluorescence spectrometer (PicoQuant, GmbH, Berlin, Germany) with the excitation light source provided by a picosecond pulsed diode laser (PicoQuant, GmbH, Berlin, Germany) at 470 nm and 20 MHz. […] The fluorescence decays were fit by a nonlinear least-squares minimization based on the Marquardt algorithm embedded in the Fluofit software (PicoQuant GmbH). […] The PicoQuant G factor was calculated according to: G = ∫HV(t)dt/∫HH(t)dt, where HV(t) and HH(t) were the decays collected with the emission polarizer selecting vertical and horizontal E-vector passing orientations, respectively, and the excitation polarizer set at horizontally position. […]
In a simple model, the transition moment is assumed to wobble within a cone of semi-apical angle Ω [59], where the cone axis is normal to the surface of a sphere that corresponds to the macromolecule. The angle Ω is calculated from Eq 14.

[6] = Fluorescence lifetimes, unbound probe; conditions: unbound dye; t for BFl and BcO, average lifetime for B-DNAds*Fl; in ns
Method: as §1
The lifetimes were collected in a FluoTime100 fluorescence spectrometer (PicoQuant, GmbH, Berlin, Germany) with the excitation light source provided by a picosecond pulsed diode laser (PicoQuant, GmbH, Berlin, Germany) at 470 nm and 20 MHz. The emission was collected at 520 nm through a non-fluorescing 520 nm interference filter (Oriel Corp., Stratford, CT) followed by a liquid filter of 1cm path length containing 24 mM acetate buffered dichromate at pH 4, between the sample and detector to eliminate traces of excitation light. The fluorescence decays were fit by a nonlinear least-squares minimization based on the Marquardt algorithm embedded in the Fluofit software (PicoQuant GmbH). […] The PicoQuant G factor was calculated according to: G = ∫HV(t)dt/∫HH(t)dt, where HV(t) and HH(t) were the decays collected with the emission polarizer selecting vertical and horizontal E-vector passing orientations, respectively, and the excitation polarizer set at horizontally position.

avidin (AV) [7] = target: T1, avidin (AV); assay: Absorbance and fluorescence emission spectra, AV complex; conditions: for Maximum Absorbance / Maximum Emission: AV complex (AB1); for Abs (nm) / Emission (nm): complex with AV
Method: as §1, §2, §3, §4

T2 sequence (P22629 25-183): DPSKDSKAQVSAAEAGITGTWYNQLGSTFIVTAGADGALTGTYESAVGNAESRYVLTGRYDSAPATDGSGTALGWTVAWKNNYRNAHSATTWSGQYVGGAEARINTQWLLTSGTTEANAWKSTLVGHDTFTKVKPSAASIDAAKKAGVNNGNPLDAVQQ
T1 sequence (P02701 25-152): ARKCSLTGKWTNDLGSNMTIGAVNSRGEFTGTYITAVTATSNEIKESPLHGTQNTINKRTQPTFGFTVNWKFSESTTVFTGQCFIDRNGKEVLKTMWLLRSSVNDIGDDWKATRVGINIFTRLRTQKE

| Structure (SMILES) | Abs (nm) [1] | Emission (nm) [1] | Lifetime τ (avidin (AV) [2]) | t (1), fluorescence lifetime (avidin (AV) [2]) | Steady State Anisotropy rss (streptavidin (SAV) [3]) | SAV-increment (%) (streptavidin (SAV) [3]) | rss, + SAV (streptavidin (SAV) [3]) | 488, correction, absR/abs [4] | QY [4] | QY multiplied by the 488 correction absR/abs [4] | W (streptavidin (SAV) [5]) | t (1), fluorescence lifetime [6] | Maximum Absorbance (avidin (AV) [7]) | Maximum Emission (avidin (AV) [7]) | Abs (nm) (avidin (AV) [7]) | Emission (nm) (avidin (AV) [7]) |
| --- | --- | --- | --- | --- | --- | --- | --- | --- | --- | --- | --- | --- | --- | --- | --- | --- |
| O=C(CCCC[C@@H]1SC[C@@H]2NC(=O)N[C@@H]21)NCCNC(=O)c1ccc(-c2c3ccc(=O)cc-3oc3cc(O)ccc23)c(C(=O)O)c1 [BFl, Biotin-4-fluorescein] | 494 nm | 530 nm | 4.22 ± 0.01 ns | 4.22 ± 0.01 | 0.171 ± 0.008 | 714.3% | 0.171 | 1 | 0.52 and 0.52 ± 0.02 | 0.52 | 51 | 4.03 ± 0.01 | 498 nm | 528 nm | 498 nm | 528 nm |
| NC(CCCCNC(=O)CCCC[C@@H]1SC[C@@H]2NC(=O)N[C@@H]21)C(=O)NCCCCCNC(=O)c1ccc(-c2c3cc(F)c(=O)cc-3oc3cc(O)c(F)cc23)c(C(=O)O)c1 (stereo partly drawn) [BcO, Oregon green 488 Biocytin] | 495 nm | 523 nm | 4.35 ± 0.01 ns | 4.35 ± 0.01 | 0.053 ± 0.005 | 130.4% | 0.053 |  | 0.91 and 0.91 ± 0.02 |  | 50 | 3.75 ± 0.04 | 497 nm | 524 nm | 497 nm | 524 nm |

From article PMC6394990, “Detailed characterization of the solution kinetics and thermodynamics of biotin, biocytin and HABA binding to avidin and streptavidin” (PLoS ONE, 2019)
